Assay: Example 41: body weight and clinical observations
Format: in vivo, BALB/cCrSlcNifdc mice
Settings: for Individual animal body weight: single mouse per group
Method: • a) General clinical observations: The clinical condition of mice was observed three times per week during the study, including assessment of tumor nodule ulceration, general appearance/behavior, coat condition, and food intake. • b) Body weight: Mouse body weight was recorded three times per week. • c) Tumor volume: Tumor volume was measured three times per week using vernier calipers. The longest diameter (length) and the perpendicular short diameter (width) were measured, and tumor volume was calculated as: Volume = 0.5 × length × (short diameter)^2. […] The tumor-weight inhibition rate (IRTW, %) was calculated, taking IRTW% > 60% as a reference indicator of efficacy. The calculation is as follows: IRTW(%) = (Wvehicle control−Wtreatment)/Wvehicle control × 100, [formula] where W denotes tumor weight.

COc1cccc2c1C(=O)c1c(O)c3c(c(O)c1C2=O)C[C@@](O)(C(=O)CO)C[C@@H]3O[C@H]1C[C@H](N)[C@@H](O)[C@H](C)O1 [F, epirubicin]
Animal body weight, D26 (one animal per group, D26, 26 days after tumor cell injection, in g (unit assumed)): 26.81
Change in body weight (g) (one animal per group, before administration to D26): +6.39 g
Animal body weight, Before administration (one animal per group, tail-vein injection once weekly, total 2 administrations, before administration): 20.42
Individual animal body weight (DAY 12, in g (unit assumed)): 20.42
Individual animal body weight (DAY 14, in g (unit assumed)): 22.15
Individual animal body weight (DAY 17, in g (unit assumed)): 23.68
Individual animal body weight (DAY 19, in g (unit assumed)): 25.41
Individual animal body weight (DAY 21, in g (unit assumed)): 26.51
Individual animal body weight (DAY 24, in g (unit assumed)): 29.19
Individual animal body weight (DAY 26, in g (unit assumed)): 26.81
